Here are results for 13 compounds from USRE41149E1, “Optically active pyridonecarboxylic acid derivatives” (Daiichi Sankyo Company, Limited, priority 1988, dated 2010).

Values after ≈ are worked out from the molar mass of the structure shown. Where a name gives a salt, the structure may show the parent alone.

What all share (test): Antimicrobial activity (MIC), standard method of Nippon Kagakuryoho Gakkai
Common to all, as to format: cell-based

One assay concerns E. coli., NIHJ. Particulars: for MIC: Escherichia coli. On the procedure:
(§1) Antimicrobial activity of the optically active compounds prepared in Examples was evaluated in accordance with the standard method specified by Nippon […], and results obtained are shown in Table 1 which precedes the claims herein in terms of minimum inhibitory concentration (MIC: […]).

The next assay has as its system Pr. vulgaris, 08601. Particulars: for MIC: Proteus vulgaris. On the procedure:
as §1

The subject of a further assay is Ps. aeruginosa, 32104. Particulars: for Antimicrobial activity (MIC): Ps. aeruginosa; for MIC: Pseudomonas aeruginosa, 32104, Ps. aeruginosa. The protocol: as §1
Another assay deals with Ps. aeruginosa, 32121. Particulars: for Antimicrobial activity (MIC): Ps. aeruginosa; for MIC: Pseudomonas aeruginosa, 32121, Ps. aeruginosa. On the procedure: as §1
Another assay concerns S. aureus, 209 P. Particulars: for MIC: Staphylococcus aureus. On the procedure: as §1
The next assay has as its system S. epidermidis, 56500. Particulars: for Antimicrobial activity (MIC): S. epidermidis; for MIC: Staphylococcus epidermidis, 56500, S. epidermidis. The protocol: as §1
For the next assay, the system named is Ser. marcescens, 10100. Particulars: for Antimicrobial activity (MIC): Ser. marcescens; for MIC: Serratia marcescens, 10100, Ser. marcescens. The protocol: as §1
Assay [1] concerns Str. faecalis, ATCC 19433. Particulars: for Antimicrobial activity (MIC): Str. faecalis; for MIC: Enterococcus faecalis, ATCC19433, Str. faecalis. On the procedure:
as §1

As to `N[C@H]1CCN(c2cc3c(cc2F)c(=O)c(C(=O)O)cn3[C@@H]2C[C@@H]2F)C1` (relative stereo) [Compound 9a, 7-[3-(S)-Amino-1-pyrrolidinyl]-6-fluoro-1-(1,2-cis-2-fluorocyclopropyl)-4-oxo-1,4-dihydroquinoline-3-carboxylic acid], the “Antimicrobial activity (MIC)” value is 0.10 µg/mL with E. coli., NIHJ; below 0.1 µg/mL in the assay on Pr. vulgaris, 08601; 0.39 µg/mL in the assay with Ps. aeruginosa, 32104; 0.10 µg/mL in the assay on Ps. aeruginosa, 32121; 0.10 µg/mL in the assay on S. aureus, 209 P; 0.39 µg/mL in the assay with S. epidermidis, 56500. In addition, the “Antimicrobial activity (MIC)” value in the assay with Ser. marcescens, 10100 is 0.20 µg/mL; in assay [1], 1.57 µg/mL.

As to `N[C@H]1CCN(c2cc3c(cc2F)c(=O)c(C(=O)O)cn3[C@@H]2C[C@@H]2F)C1` (relative stereo) [Compound 9b, 7-[3-(S)-Amino-1-pyrrolidinyl]-6-fluoro-1-(1,2-cis-2-fluorocyclopropyl)-4-oxo-1,4-dihydroquinoline-3-carboxylic acid], the “Antimicrobial activity (MIC)” value in the assay on E. coli., NIHJ was below 0.1 µg/mL; in the assay on Pr. vulgaris, 08601, below 0.1 µg/mL; in the assay on Ps. aeruginosa, 32104 it was 0.10 µg/mL; with Ps. aeruginosa, 32121, below 0.1 µg/mL; in the assay on S. aureus, 209 P it was below 0.1 µg/mL; with S. epidermidis, 56500 it was 0.39 µg/mL. Further, the “Antimicrobial activity (MIC)” value is 0.10 µg/mL in the assay on Ser. marcescens, 10100 and 0.79 µg/mL in assay [1].

For the compound `NC1CN(c2c(F)cc3c(=O)c(C(=O)O)cn([C@@H]4C[C@@H]4F)c3c2Cl)CC12CC2` (relative stereo) [Compound 26bb, (−)-7-(7-Amino-5-azaspiro[2.4]heptan-5-yl)-8-chloro-6-fluoro-1-(1,2-cis-2-fluoro-1-cylcopropyl)-1,4-dihydro-4-oxoquinoline-3-carboxylic acid], the “Antimicrobial activity (MIC)” value in the assay on E. coli., NIHJ was below 0.1 µg/mL; in the assay with Pr. vulgaris, 08601, below 0.1 µg/mL; with Ps. aeruginosa, 32104 it was below 0.1 µg/mL; with Ps. aeruginosa, 32121, below 0.1 µg/mL; in the assay with S. aureus, 209 P, below 0.1 µg/mL; in the assay with S. epidermidis, 56500, below 0.1 µg/mL. In addition, the “Antimicrobial activity (MIC)” value is below 0.1 µg/mL with Ser. marcescens, 10100 and 0.20 µg/mL in assay [1].

Consider `C[C@H]1C[C@H](N)CN1c1nc2c(cc1F)c(=O)c(C(=O)O)cn2[C@@H]1C[C@@H]1F` (relative stereo) [Compound 31b, 7-[4-(S)-Amino-2-(S)-methyl-1-pyrrolidinyl]-6-fluoro-1-(1,2-cis-2-fluoro-1-cyclopropyl)-4-oxo-1,4-dihydro-1,8-naphthyridine-3-carboxylic acid], for which the “Antimicrobial activity (MIC)” value in the assay on E. coli., NIHJ was below 0.1 µg/mL; with Pr. vulgaris, 08601, below 0.1 µg/mL; in the assay on Ps. aeruginosa, 32104, 0.20 µg/mL; with Ps. aeruginosa, 32121, 0.10 µg/mL; with S. aureus, 209 P, below 0.1 µg/mL; in the assay on S. epidermidis, 56500, 0.20 µg/mL. For the same compound, the “Antimicrobial activity (MIC)” value was 0.10 µg/mL in the assay with Ser. marcescens, 10100 and 0.39 µg/mL in assay [1].

As for `Nc1c(F)c(N2CC(N)C3(CC3)C2)c(F)c2c1c(=O)c(C(=O)O)cn2[C@@H]1C[C@@H]1F` (relative stereo) [Compound 56b, 5-Amino-7-(7-amino-5-azaspiro[2,4]heptan-5-yl)-6,8-difluoro-1-(1,2-cis-2-fluoro-1-cyclopropyl) 4-oxo-1,4-dihydroquinoline-3-carboxylic acid], the “Antimicrobial activity (MIC)” value with E. coli., NIHJ was below 0.1 µg/mL; with Pr. vulgaris, 08601 it was below 0.1 µg/mL; with Ps. aeruginosa, 32104, below 0.1 µg/mL; with Ps. aeruginosa, 32121, below 0.1 µg/mL; in the assay with S. aureus, 209 P it was below 0.1 µg/mL; in the assay on S. epidermidis, 56500 it was below 0.1 µg/mL. Also, the “Antimicrobial activity (MIC)” value was below 0.1 µg/mL with Ser. marcescens, 10100 and 0.10 µg/mL in assay [1].

Consider `NC1CN(c2c(F)cc3c(=O)c(C(=O)O)cn([C@@H]4C[C@@H]4F)c3c2Cl)CC12CCC2` (relative stereo) [Compound 58b, (−)-7-(8-amino-6-azaspiro[3.4]octane-6-yl)-8-chloro-6-fluoro-1-(1,2-cis-2-fluoro-1-cyclopropyl)-1,4-dihydro-4-oxoquinoline-3-carboxylic acid], for which the “Antimicrobial activity (MIC)” value in the assay on E. coli., NIHJ is below 0.1 µg/mL; with Pr. vulgaris, 08601, below 0.1 µg/mL; with Ps. aeruginosa, 32104, 0.10 µg/mL; with Ps. aeruginosa, 32121, below 0.1 µg/mL; in the assay with S. aureus, 209 P, below 0.1 µg/mL; in the assay on S. epidermidis, 56500, below 0.1 µg/mL. Besides, the “Antimicrobial activity (MIC)” value is below 0.1 µg/mL in the assay on Ser. marcescens, 10100 and below 0.1 µg/mL in assay [1].

As a reminder, the MIC is the lowest concentration that inhibits growth of the organism. Read a low MIC as a more susceptible organism. As for `NC1CN(c2c(F)cc3c(=O)c(C(=O)O)cn(C4CC4F)c3c2Cl)CC12CC2` (single isomer, unassigned) [Compound 26aa], the “Antimicrobial activity (MIC)” value was below 0.1 µg/mL in the assay on E. coli., NIHJ and below 0.1 µg/mL in the assay on Pr. vulgaris, 08601. The MIC in the assay with Ps. aeruginosa, 32104 is 0.39 µg/mL (≈ 0.952 µM); against Ps. aeruginosa, 32121 it was 0.1 µg/mL (≈ 0.244 µM); with S. aureus, 209 P it was below 0.1 µg/mL; in the assay on S. epidermidis, 56500 it was 0.2 µg/mL (≈ 0.488 µM); against Ser. marcescens, 10100, 0.1 µg/mL (≈ 0.244 µM); in assay [1], 0.39 µg/mL (≈ 0.952 µM).

As for `NC1CN(c2c(F)cc3c(=O)c(C(=O)O)cn(C4CC4F)c3c2Cl)CC12CC2` (single isomer, unassigned) [Compound 26ab], the “Antimicrobial activity (MIC)” value is below 0.1 µg/mL in the assay with E. coli., NIHJ; below 0.1 µg/mL in the assay on Pr. vulgaris, 08601; 0.20 µg/mL with Ps. aeruginosa, 32104; below 0.1 µg/mL in the assay on Ps. aeruginosa, 32121; below 0.1 µg/mL in the assay with S. aureus, 209 P; 0.10 µg/mL in the assay with S. epidermidis, 56500. The “Antimicrobial activity (MIC)” value is below 0.1 µg/mL in the assay on Ser. marcescens, 10100 and 0.20 µg/mL in assay [1].

In the case of `Cc1c(N2CC[C@@H]([C@H](C)N)C2)c(F)cc2c(=O)c(C(=O)O)cn(C3CC3F)c12` (single isomer, unassigned; (-)) [Compound 54b, hydrochloride], the MIC against E. coli., NIHJ was below 0.1 µg/mL; with Pr. vulgaris, 08601, below 0.1 µg/mL; in the assay with Ps. aeruginosa, 32104 it was 0.2 µg/mL; against Ps. aeruginosa, 32121, 0.1 µg/mL; against S. aureus, 209 P, below 0.1 µg/mL; against S. epidermidis, 56500 it was below 0.1 µg/mL. In addition, the minimal inhibitory concentration (MIC) was determined as 0.1 µg/mL in the assay on Ser. marcescens, 10100 and 0.1 µg/mL in assay [1].

Regarding `NC1CN(c2c(F)cc3c(=O)c(C(=O)O)cn(C4CC4F)c3c2Cl)CC12CC2` (centres unmarked) [Compound 26ba], the minimum inhibitory concentration (MIC) against E. coli., NIHJ was below 0.1 µg/mL; in the assay with Pr. vulgaris, 08601 it was below 0.1 µg/mL. Also, the “Antimicrobial activity (MIC)” value is 0.20 µg/mL with Ps. aeruginosa, 32104; 0.10 µg/mL in the assay on Ps. aeruginosa, 32121; below 0.1 µg/mL with S. aureus, 209 P; 0.20 µg/mL in the assay with S. epidermidis, 56500; below 0.1 µg/mL in the assay with Ser. marcescens, 10100; 0.39 µg/mL in assay [1].

Consider “(+)-5-Amino-7-[3-(S)-amino-1-pyrrolidinyl]-6,8-difluoro-1-(1,2-cis-2-fluoro-1-cyclopropyl)-4-oxo-1,4-dihydroquinoline-3-carboxylic acid [Compound 18b]”, for which the “Antimicrobial activity (MIC)” value was below 0.1 µg/mL in the assay on E. coli., NIHJ; below 0.1 µg/mL in the assay on Pr. vulgaris, 08601; below 0.1 µg/mL in the assay with Ps. aeruginosa, 32104; below 0.1 µg/mL with Ps. aeruginosa, 32121; below 0.1 µg/mL with S. aureus, 209 P; below 0.1 µg/mL in the assay with S. epidermidis, 56500. Besides, the “Antimicrobial activity (MIC)” value in the assay with Ser. marcescens, 10100 is below 0.1 µg/mL; in assay [1], 0.10 µg/mL.

For “(+)-7-[3-(S)-Amino-1-pyrrolidinyl]-8-chloro-6-fluoro-1-(1,2-cis-2-fluoro-1-cyclopropyl)-4-oxo-1,4-dihydroquinoline-3-carboxylic acid [Compound 13a]”, the “Antimicrobial activity (MIC)” value in the assay with E. coli., NIHJ was below 0.1 µg/mL; in the assay with Pr. vulgaris, 08601 it was below 0.1 µg/mL; with Ps. aeruginosa, 32104 it was below 0.1 µg/mL; in the assay on Ps. aeruginosa, 32121 it was below 0.1 µg/mL; in the assay with S. aureus, 209 P, below 0.1 µg/mL; with S. epidermidis, 56500 it was below 0.1 µg/mL. In addition, the “Antimicrobial activity (MIC)” value was below 0.1 µg/mL with Ser. marcescens, 10100 and 0.20 µg/mL in assay [1].

As to “(−)-5-Amino-7-[3-(S)-amino-1-pyrrolidinyl]-6,8-difluoro-1-(1,2-cis-2-fluoro-1-cyclopropyl)-4-oxo-1,4-dihydroquinoline-3-carboxylic acid [Compound 18a]”, the “Antimicrobial activity (MIC)” value is below 0.1 µg/mL in the assay with E. coli., NIHJ; below 0.1 µg/mL in the assay on Pr. vulgaris, 08601; below 0.1 µg/mL with Ps. aeruginosa, 32104; below 0.1 µg/mL in the assay with Ps. aeruginosa, 32121; below 0.1 µg/mL with S. aureus, 209 P; below 0.1 µg/mL in the assay with S. epidermidis, 56500. For the same compound, the “Antimicrobial activity (MIC)” value with Ser. marcescens, 10100 was below 0.1 µg/mL; in assay [1], 0.20 µg/mL.
